The source of these data is ChEMBL document CHEMBL3507680, “University of Dundee, Gates Library screen for HepG2 cell viability”.

The nature of this series: Human HepG2 cell viability assay in 384 well format. In kind it is toxicity, cell-based. Further details: dose 125 nL, time 70.5 hour; concentration not given beside the values. Particulars: HepG2 cells, read-out: Inhibition.

With `Cn1cc(-c2cnc(N3CCOCC3)nc2)cc1C(=O)N1CCCC1`, the cytotoxicity at 70.5 h was -27.5%.

As for `c1cncc(CN2CCc3c(CNc4nccs4)n[nH]c3C2)c1`, the cytotoxicity at 70.5 h was -25%.

Regarding `C[C@@H]1C[C@@H]2CCN(C(=O)c3ccncn3)C[C@H]2O1`, the cytotoxicity at 70.5 h was -7.65%.

As to `COc1cc2cc(C(=O)NCCC(=O)O)n(C)c2c(OC)c1OC`, the cytotoxicity at 70.5 h is -4.76%.

As to `Cn1nc(C(=O)NCc2ccc(Cl)cc2)c2c1CCS(=O)(=O)C2`, the cytotoxicity at 70.5 h is 2.61%.

As to `COc1ccccc1C(=O)Nc1c(F)c(C(=O)NC2CCCC2)nn1C`, the cytotoxicity at 70.5 h was -7.93%.

Take `CC(C)NC(=O)c1nn(C)c(NC(=O)Cc2ccccc2)c1F`: the cytotoxicity at 70.5 h is -11.4%.

Consider `COc1ccccc1C(=O)Nc1c(F)c(C(=O)NCCC(C)C)nn1C`, for which the cytotoxicity at 70.5 h came out at 25.3%.

As to `Cc1nc(N2CCCC2)ncc1-c1cc(O)nc(N2CCN(C)CC2)n1`, the cytotoxicity at 70.5 h is -2.96%.

On to `CCC1=NC(SCC(=O)c2ccc(C)cc2)c2cc(CC)sc2N1` (stereo not drawn), for which the cytotoxicity at 70.5 h was -15.9%.

As to `CCC1=NC(SCC(=O)c2ccc(Cl)cc2)c2cc(CC)sc2N1` (stereo not drawn), the cytotoxicity at 70.5 h was -11%.

Take `O=S(=O)(Nc1ccc(Oc2ccc3c(c2)OCO3)cc1)N1CCCCC1`: the cytotoxicity at 70.5 h came to 23%.

In the case of `Cn1ccnc1SCC(=O)NCc1ccc2c(c1)CCC(=O)N2`, the cytotoxicity at 70.5 h worked out at 2.79%.

Consider `COc1ccc(C2=Nn3c(CCN)nnc3-c3ccccc3C2)cc1`, for which the cytotoxicity at 70.5 h was 8.3%.

Turning to `COc1ccc(C2=Nn3c(CCCN)nnc3-c3ccccc3C2)cc1`, the cytotoxicity at 70.5 h worked out at 4.99%.

`O=C(NCc1ccco1)c1[nH]nc2c1CS(=O)(=O)CC2`: the cytotoxicity at 70.5 h was found to be 22.5%.

As for `CCn1ncc(CNc2[nH]cnc3nncc2-3)c1C`, the cytotoxicity at 70.5 h was -13.8%.

`Cc1nc2[nH]cnc(Nc3cnn(C)c3)c-2n1`: the cytotoxicity at 70.5 h turned out to be 0.28%.

In the case of `Cc1nc2[nH]cnc(NCCCN3CCOCC3)c-2n1`, the cytotoxicity at 70.5 h was -6.34%.

As for `CC(Nc1ncnc2c1NC(=O)CN2)c1ccccn1` (stereo not drawn), the cytotoxicity at 70.5 h was -13.6%.

In the case of `O=C1CNc2ncnc(Nc3cnn(Cc4ccccc4)c3)c2N1`, the cytotoxicity at 70.5 h was determined as 27%.

For `O=C1CNc2ncnc(Nc3cnn(Cc4ccc(F)cc4)c3)c2N1`, the cytotoxicity at 70.5 h is -12.2%.

For the molecule `CC(Nc1ncnc2c1NC(=O)CN2)c1ccc2c(c1)OCO2` (stereo not drawn), the cytotoxicity at 70.5 h was -18.5%.

As for `O=C1CNc2ncnc(Nc3cccc(Cn4cccn4)c3)c2N1`, the cytotoxicity at 70.5 h was -6.61%.

As for `COc1ccccc1CNc1ncnc2c1NC(=O)CN2`, the cytotoxicity at 70.5 h is -6.12%.

For the molecule `CC(C)c1noc(C2CCN(C(=O)C3CCCO3)CC2)n1` (stereo not drawn), the cytotoxicity at 70.5 h was -11.9%.

In the case of `O=C1c2cnc(N3CCOCC3)nc2CN1Cc1cccc(F)c1`, the cytotoxicity at 70.5 h is -6.18%.

`CNc1ncc2c(n1)CN(C1CCCC1)C2=O`: the cytotoxicity at 70.5 h is -9.4%.

For the molecule `CN(C)c1ncc2c(n1)CN(C1CCSCC1)C2=O`, the cytotoxicity at 70.5 h is 22.1%.

Take `O=C1c2cnc(N3CCCCC3)nc2CN1c1ccc2c(c1)OCO2`: the cytotoxicity at 70.5 h worked out at 16.4%.

As to `CCCc1noc(C2CCCCN2C(=O)CCc2cnn(C)c2)n1` (stereo not drawn), the cytotoxicity at 70.5 h was -0.695%.

As to `c1ccc2c(N3CCCCC3)cnnc2c1`, the cytotoxicity at 70.5 h was -6.45%.

`c1ccc2c(N3CCOCC3)cnnc2c1`: the cytotoxicity at 70.5 h is -8.59%.

On to `CNc1ncc2c(n1)CN(CCc1ccc(C)cc1)C2=O`, for which the cytotoxicity at 70.5 h was -3.63%.

With `COc1ccc(N2Cc3nc(N)ncc3C2=O)cc1Cl`, the cytotoxicity at 70.5 h is -3.37%.

For `COc1ccc(CCNC(=O)Cn2ncc3c2c(C)nn3C)cc1`, the cytotoxicity at 70.5 h is -12.7%.

Consider `CCc1noc(C2CCCCN2C(=O)c2cc(C)on2)n1` (stereo not drawn), for which the cytotoxicity at 70.5 h was -6.42%.

With `CCn1nc(C)c2c1cnn2CC(=O)Nc1ccc(OC)cc1C`, the cytotoxicity at 70.5 h was -1.46%.

Take `CCC(C)NC(=O)Cn1ncc2c1c(C)nn2CC` (stereo not drawn): the cytotoxicity at 70.5 h turned out to be 22.8%.

Consider `Cc1nn(C)c2cn(CC(=O)N3CCN(c4ccccn4)CC3)nc12`, for which the cytotoxicity at 70.5 h worked out at 5.73%.

For `COc1ccccc1CNC(=O)C(C)n1cc2c(n1)c(C)nn2C` (stereo not drawn), the cytotoxicity at 70.5 h is -6.09%.

In the case of `CCN(CC)c1nc(Nc2cccc(C(=O)O)c2)nc2ccccc12`, the cytotoxicity at 70.5 h was -11.2%.

`COc1ccc(CNc2cc3[nH]c(O)nc3cc2C)cc1`: the cytotoxicity at 70.5 h was -5.05%.

For `Cc1nc(N2CCC(C)CC2)ncc1-c1cc(O)nc(N2CCCC2)n1`, the cytotoxicity at 70.5 h amounted to 1.46%.

Take `CC(C)CN1Cc2nc(N)ncc2C1=O`: the cytotoxicity at 70.5 h was -10.7%.

For `COc1ccc(N2Cc3nc(N4CCCC4)ncc3C2=O)cc1Cl`, the cytotoxicity at 70.5 h is 1.18%.

With `Cc1ccccc1CNC(=O)Cn1ncc2c1c(C)nn2C`, the cytotoxicity at 70.5 h is -9.91%.

Take `Clc1ccc2nncc(N3CCCCC3)c2c1`: the cytotoxicity at 70.5 h is -10.7%.

With `CCN1CCCC(O)(CNCc2ccc3c(c2)OCO3)C1` (stereo not drawn), the cytotoxicity at 70.5 h was -10.3%.

Take `CCN1CCN(C(=O)Cn2ncc3c2c(C)nn3C(C)C)CC1`: the cytotoxicity at 70.5 h is -4.28%.

As to `Cc1nn(C)c2cn(CC(=O)N3CCc4ccccc4C3)nc12`, the cytotoxicity at 70.5 h was determined as 1.13%.

Turning to `COCCNC(=O)Cn1cc2c(n1)c(C)nn2C(C)C`, the cytotoxicity at 70.5 h was -5.84%.

With `CCN1CCCC(O)(CN(C)Cc2c(C)nn(C)c2C)C1` (stereo not drawn), the cytotoxicity at 70.5 h stood at 2.33%.

Take `N#Cc1c(N2CCOCC2)nsc1-c1cccnc1`: the cytotoxicity at 70.5 h is -4.2%.

For the molecule `CCn1cc(N2Cc3nc(N4CCC(C)CC4)ncc3C2=O)cn1`, the cytotoxicity at 70.5 h is -8.76%.

Regarding `CCN1CCN(c2nsc(-c3cccnc3)c2C#N)CC1`, the cytotoxicity at 70.5 h was -5.08%.

In the case of `COc1ccc2nnc(C(=O)NC3CCCC3)nc2c1`, the cytotoxicity at 70.5 h is -4.15%.

Take `COC(=O)C1CCN(C(=O)c2nnc3ccc(Cl)cc3n2)CC1`: the cytotoxicity at 70.5 h was -7.04%.

On to `CC1CCN(c2ncc3c(n2)CN(C2CCS(=O)(=O)C2)C3=O)CC1` (stereo not drawn), for which the cytotoxicity at 70.5 h amounted to 29%.

Consider `Cc1cccc(N2Cc3nc(N4CCC(C)CC4)ncc3C2=O)c1`, for which the cytotoxicity at 70.5 h was -5.12%.

For `CCN1CCN(C(=O)c2cc(NC(=O)c3ccccc3)n(C)n2)CC1`, the cytotoxicity at 70.5 h is -3.8%.

As for `Cc1nn(C)c(C)c1CNC(=O)c1cc(NC(=O)C2CC2)n(C)n1`, the cytotoxicity at 70.5 h is -7.51%.

Consider `Cn1nc(C(=O)NC2CCCCC2)cc1NC(=O)C1CC1`, for which the cytotoxicity at 70.5 h was -5.38%.

With `Cn1nc(C(=O)NC2CCCC2)cc1NC(=O)C1CC1`, the cytotoxicity at 70.5 h was -8.78%.

Regarding `Cn1nc(C(=O)NC2CC2)cc1NC(=O)C1CC1`, the cytotoxicity at 70.5 h was -7.34%.

`CCCN1CCN(c2nc(N)nc3c2nc(C)n3C)CC1`: the cytotoxicity at 70.5 h came out at 20.9%.

In the case of `CC(=O)c1ccc(Nc2nc(N)nc3c2nc(C)n3C)cc1`, the cytotoxicity at 70.5 h is 4.46%.

Turning to `Cc1nc2c(Nc3ccc(C#N)cc3)nc(N)nc2n1C`, the cytotoxicity at 70.5 h is -1.73%.

On to `O=C(CCn1ncc2c(Cl)cccc21)NCCCn1cccn1`, for which the cytotoxicity at 70.5 h was -5.51%.

Consider `Cc1ccsc1CN(CCCO)Cc1nc2ccccc2[nH]1`, for which the cytotoxicity at 70.5 h was -1.23%.

Regarding `COCC(=O)N[C@@H]1CN(Cc2ccc3c(c2)OCCO3)C[C@H]1O`, the cytotoxicity at 70.5 h worked out at 9.74%.

Turning to `COCCNc1cccc(C2CCCN2)n1` (stereo not drawn), the cytotoxicity at 70.5 h was -6.3%.

As for `O=C(CCN1CCc2ccccc21)N1C[C@@H](O)[C@H](N2CCOCC2)C1`, the cytotoxicity at 70.5 h is -3%.

With `CC1(C2CCN(CCCC(=O)O)CC2)CN(Cc2ccccc2)C(=O)O1` (stereo not drawn), the cytotoxicity at 70.5 h was 2.48%.

For `CN(C)C(=O)CN1CCC2(CC1)C[C@@H](O)[C@H](c1ccccc1)NC2=O`, the cytotoxicity at 70.5 h was -8.01%.

On to `Cc1cccnc1CN1CC[C@@](C)(O)[C@H](Oc2ccccc2)C1`, for which the cytotoxicity at 70.5 h is -7.26%.

For the molecule `O[C@H]1CN(Cc2cc3ccccc3o2)CC[C@@]12CCCO2`, the cytotoxicity at 70.5 h is -8.98%.

In the case of `CNc1cc(C2CN(CC(=O)N(C)C)CCO2)nc(C)n1` (stereo not drawn), the cytotoxicity at 70.5 h was -5.66%.

In the case of `Cc1cnc(C2(C)CCN(Cc3cscn3)CC2)s1`, the cytotoxicity at 70.5 h is -6.19%.

Take `CCS(=O)(=O)N1CCCC(c2ccnc(N(C)C)c2)C1` (stereo not drawn): the cytotoxicity at 70.5 h is -6.79%.

`CN(C)c1nccc(C2CN(C(=O)CO)C2)n1`: the cytotoxicity at 70.5 h is -4.15%.

As for `CC(=O)N1CCc2nnc(C3CCCCN3CC3CCCCC3)n2CC1` (stereo not drawn), the cytotoxicity at 70.5 h stood at 12.6%.

Consider `O=C(O)c1cccc(CN2CCC(c3ccnc4ccnn34)CC2)c1`, for which the cytotoxicity at 70.5 h was -8.88%.

Turning to `Cc1cc(C2CCCCN2C(=O)c2ccsc2)nc2nccn12` (stereo not drawn), the cytotoxicity at 70.5 h turned out to be 6.22%.

Take `Cc1cc(C2CCCCN2C(=O)c2cccn2C)nc2nccn12` (stereo not drawn): the cytotoxicity at 70.5 h was 4.86%.

Turning to `O=C(NCCNC1CCCC1)c1cccs1`, the cytotoxicity at 70.5 h was -6.72%.

`COCC(=O)N1CCCC(c2csc(NC(C)=O)n2)C1` (stereo not drawn): the cytotoxicity at 70.5 h is -8.74%.

In the case of `CC(=O)N1CCOC(c2nc(N(C)C)ncc2-c2cccc(F)c2)C1` (stereo not drawn), the cytotoxicity at 70.5 h was -7.24%.

On to `Cc1nccc(N2CCCC(C)(C(=O)NC3CCCC3)C2)n1` (stereo not drawn), for which the cytotoxicity at 70.5 h was -15.1%.

Take `Fc1ccccc1-c1nccnc1C1CCCNC1` (stereo not drawn): the cytotoxicity at 70.5 h was -8.72%.

Regarding `CNc1cc(C2CCCN(S(=O)(=O)c3cn[nH]c3)C2)ccn1` (stereo not drawn), the cytotoxicity at 70.5 h is -16.1%.

On to `O=C(NC1CCCC1)c1ccc(C2CCCNC2)nc1` (stereo not drawn), for which the cytotoxicity at 70.5 h turned out to be 9.52%.

On to `O=C(NCCO)C1(Cc2ccccc2-c2cccnc2)CCOCC1`, for which the cytotoxicity at 70.5 h was -10.7%.

With `Cc1nc(C2(O)CCCNCC2)sc1CCOc1ccccc1F` (stereo not drawn), the cytotoxicity at 70.5 h came to 2.34%.

For the molecule `CN(C)c1ncc(-c2cccc(F)c2)c(C2CNCCO2)n1` (stereo not drawn), the cytotoxicity at 70.5 h is -5.48%.

As to `Cc1noc(C)c1-c1nc(C2CCCNC2)ccc1CO` (stereo not drawn), the cytotoxicity at 70.5 h was -5.83%.

Take `CN(C)C(=O)c1ccc(C2CCCNC2)nc1` (stereo not drawn): the cytotoxicity at 70.5 h is -6.57%.

Turning to `CCOCC1CN(Cc2ccoc2)Cc2nn(C)cc21` (stereo not drawn), the cytotoxicity at 70.5 h is -4.9%.

With `O=C(C1CCOCC1)N1CCO[C@H]2[C@H](OCc3ccncc3)CC[C@@H]21`, the cytotoxicity at 70.5 h is -9.92%.

For the molecule `CCN1CC[C@@]2(C(=O)Nc3ccccc3)CCN(S(C)(=O)=O)CC[C@@H]12`, the cytotoxicity at 70.5 h was -17.9%.

For `O=C1COC2(CCN(Cc3ccncc3)CC2)CN1`, the cytotoxicity at 70.5 h was -11.9%.

For `CCN1CCC2(CC1)CC(NCc1ccncc1)c1ccccc1O2` (stereo not drawn), the cytotoxicity at 70.5 h was -20.8%.

For the molecule `COc1ncc(CN(CCCN2CCOCC2)Cc2ccc(C)o2)cn1`, the cytotoxicity at 70.5 h is -4.04%.
